Results from patent publication US6943183B2 (Pfizer Inc, priority 2000, dated 2005).

These molecules were tested against T1, SF9 affinity purified rat FPT (Rattus norvegicus, UniProt Q02293+Q04631) (assay: PFT (FPT) inhibitory activity assay, radiolabeled farnesyl pyrophosphate and biotinyl peptide, streptavidin beads). Settings: HEPES buffer pH 7.4, 30° C., 30 minutes; read-out: FTase IC50.
T1 construct: made in house; host or cells: Sf9 insect cells
Assay type: biochemical
In short: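 Rat FPT expressed in SF9 cells was incubated 30 minutes at 30° C. with compound (in 10% DMSO), radiolabeled farnesyl pyrophosphate and biotinylated peptide. Buffer: HEPES pH 7.4, ZnCl2 20 μM, MgCl2 and DTT 5 mM each, 0.1% PEG 8000, 5 mM potassium phosphate (also run without phosphate). Product captured on streptavidin beads in magnesium acetate/H3PO4 stop buffer.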

| SMILES | IC50 [nM] |
| --- | --- |
| O=C1CCCc2c1ccc(O[C@H](Cn1ccnc1)c1ccccc1)c2COc1ccccc1 [Compound 66, 6-((1S)-2-Imidazolyl-1-phenylethoxy)-5-(phenoxymethyl)-2,3,4-trihydronaphthalen-1-one] | 12 |
| Cc1ccc(C(C)C)cc1OCc1c(O[C@H](Cn2ccnc2)c2ccccc2)ccc2c1CCCC2=O [Compound 70] | 7 |
| Cc1ccc(OCc2c(O[C@H](Cn3ccnc3)c3ccccc3)ccc3c2CCCC3=O)cn1 [Compound 82] | 9 |
| Cc1ccc(OCc2c(O[C@H](Cn3ccnc3)c3ccccc3)ccc3c2CCCC3=O)cn1 [Compound 83, 6-((1S)-2-imidazolyl-1-phenylethoxy)-5-[(6-methyl(3-pyridyloxy))methyl]-2,3,4-trihydronaphthalen-1-one] | 18 |
| O=C1CCCc2c1ccc(O[C@H](Cn1ccnc1)c1ccccc1)c2COc1ccc2ccccc2c1 [Compound 85] | 10 |
| COC(=O)c1cccc(OCc2c(O[C@H](Cn3ccnc3)c3ccccc3)ccc3c2CCCC3=O)c1 [Compound 88, Methyl 3-{[2-((1S)-2-imidazolyl-1-phenylethoxy)-5-oxo-6,7,8-trihydronaphthyl]methoxy}benzoate] | 7 |
| Cc1cc(C)c(OCc2c(O[C@H](Cn3ccnc3)c3ccccc3)ccc3c2CCCC3=O)c(C)c1 [Compound 89, 6-((1S)-2-Imidazolyl-1-phenylethoxy)-5-[(2,4,6-trimethylphenoxy)methyl]-2,3,4-trihydronaphthalen-1-one] | 7 |
| O=C1CCCc2c1ccc(O[C@H](Cn1ccnc1)c1ccccc1)c2COc1ccc(Oc2ccccc2)cc1 [Compound 97] | 6 |
| O=C1CCCc2c1ccc(O[C@H](Cn1ccnc1)c1ccccc1)c2COc1cccc2ccccc12 [Compound 104, 6-((1S)-2-Imidazolyl-1-phenylethoxy)-5-(naphenyloxymethyl)-2,3,4-trihydronaphthalen-1-one] | 5 |
| O=C1CCCc2c1ccc(O[C@H](Cn1ccnc1)c1ccccc1)c2COc1ccccc1Cl [Compound 106] | 6 |
| O=C1CCCc2c1ccc(O[C@H](Cn1ccnc1)c1ccccc1)c2COc1ccc2ncccc2c1 [Compound 107, 6-((1S)-2-Imidazolyl-1-phenylethoxy)-5-(6-quinolyloxymethyl)-2,3,4-trihydronaphthalen-1-one] | 10 |
| O=C1CCCc2c1ccc(O[C@H](Cn1ccnc1)c1ccccc1)c2CSc1ccc(Br)cc1 [Compound 109, 6-((1S)-2-Imidazolyl-1-phenylethoxy)-5-[(4-bromophenylthio)methyl]-2,3,4-trihydronaphthalen-1-one] | 30 |
| O=C(O)c1cccnc1SCc1c(O[C@H](Cn2ccnc2)c2ccccc2)ccc2c1CCCC2=O [Compound 126, 2-{[2-((1S)-2-Imidazolyl-1-phenylethoxy)-5-oxo-6,7,8-trihydronaphenyl]methylthio}pyridine-3-carboxylic acid] | 19 |
| CC(=O)N(Cc1c(O[C@H](Cn2ccnc2)c2ccccc2)ccc2c1CCCC2=O)c1ccc(C)cc1 [Compound 144, N-[2-((S)-2-Imidazol-1-yl-1-phenyl-ethoxy)-5-oxo-5,6,7,8-tetrahydro-naphthalen-1-ylmethyl]-N-β-tolyl-acetamide] | 35 |
| O=C1CCCc2c1ccc(O[C@H](Cn1ccnc1)c1ccccc1)c2CNc1ccc2[nH]ncc2c1 [Compound 145] | 16 |
| O=C1CCCc2c1ccc(O[C@H](Cn1ccnc1)c1ccccc1)c2CN1CCN(c2ccccc2)CC1 [Compound 146, 6-((S)-2-Imidazol-1-yl-1-phenyl-ethoxy)-5-(4-phenyl-piperazin-1-ylmethyl)-3,4-dihydro-2H-napthalen-1-one] | 34 |
| O=C1CCCc2c1ccc(O[C@H](Cn1ccnc1)c1ccccc1)c2CN1CCN(c2ccccn2)CC1 [Compound 147, 6-((S)-2-Imidazol-1-yl-1-phenyl-ethoxy)-5-(4-pyridin-2-yl-piperazin-1-ylmethyl)-3,4-dihydro-2H-napthalen-1-one] | 19 |
| O=C1CCCc2c1ccc(O[C@H](Cn1ccnc1)c1ccccc1)c2CNc1cccc2cccnc12 [Compound 148, 6-((S)-2-Imidazol-1-yl-1-phenyl-ethoxy)-5-(quinolin-8-ylaminomethyl)-3,4-dihydro-2H-napthalen-1-one] | 5.3 |
| O=C1CCCc2c1ccc(O[C@H](Cn1ccnc1)c1ccccc1)c2CNc1ccc(Br)cc1 [Compound 150, 5-[(4-Bromo-phenylamino)-methyl]-6-((S)-2-imidazol-1-yl-1-phenyl-ethoxy)-3,4-dihydro-2H-napthalen-1-one] | 16 |

Continued, values first:

| IC50 [nM] | SMILES |
| --- | --- |
| 1 | CC(C)(C)c1cccc(OCc2c(O[C@H](Cn3ccnc3)c3ccccc3)ccc3c2CCCC3=O)c1 [Compound 67] |
| 0.7 | O=C1CCCc2c1ccc(O[C@H](Cn1ccnc1)c1ccccc1)c2COc1cccc(Cl)c1 [Compound 69] |
| 4 | COc1cc(OC)cc(OCc2c(O[C@H](Cn3ccnc3)c3ccccc3)ccc3c2CCCC3=O)c1 [Compound 71, 6-((1S)-2-imidazolyl-1-phenylethoxy)-5-[(3,5-dimethoxyphenoxy)methyl]-2,3,4-trihydronaphthalen-1-one] |
| 5 | CC(C)c1ccc(OCc2c(O[C@H](Cn3ccnc3)c3ccccc3)ccc3c2CCCC3=O)cc1 [Compound 72] |
| 2 | O=C1CCCc2c1ccc(O[C@H](Cn1ccnc1)c1ccccc1)c2COc1ccc2c(c1)CCCC2 [Compound 73, 6-((1S)-2-Imidazolyl-1-phenylethoxy)-5-(2-5,6,7,8-tetrahydro-naphthyloxymethyl)-2,3,4-trihydronaphthalen-1-one] |
| 3 | CC(C)c1cccc(OCc2c(O[C@H](Cn3ccnc3)c3ccccc3)ccc3c2CCCC3=O)c1 [Compound 74] |
| 1 | O=C1CCCc2c1ccc(O[C@H](Cn1ccnc1)c1ccccc1)c2COc1cccc2[nH]ccc12 [Compound 76, 6-((1S)-2-Imidazolyl-1-phenylethoxy)-5-(indol-4-yloxymethyl)-2,3,4-trihydronaphthalen-1-one] |
| 0.8 | CCOc1ccccc1OCc1c(O[C@H](Cn2ccnc2)c2ccccc2)ccc2c1CCCC2=O [Compound 78, 6-((1S)-2-Imidazolyl-4-phenylethoxy)-5-[(2-ethoxyphenoxy)methyl]-2,3,4-trihydronaphthalen-1-one] |
| 0.8 | CCOc1ccc(OCc2c(O[C@H](Cn3ccnc3)c3ccccc3)ccc3c2CCCC3=O)cc1 [Compound 79] |
| 4 | COC(=O)c1ccccc1OCc1c(O[C@H](Cn2ccnc2)c2ccccc2)ccc2c1CCCC2=O [Compound 81, Methyl 2-{[2-((1S)-2-imidazolyl-1-phenylethoxy)-5-oxo-6,7,8-trihydronaphthyl]methoxy}benzoate] |
| 4 | O=C1CCCc2c1ccc(O[C@H](Cn1ccnc1)c1ccccc1)c2COc1ccc2c(c1)OCO2 [Compound 92, 6-((1S)-2-imidazolyl-1-phenylethoxy)-5-(2H-benzo[d]1,3-dioxolan-5-yloxymethyl)-2,3,4-trihydronaphthalen-1-one] |
| 3 | O=C1CCCc2c1ccc(O[C@H](Cn1ccnc1)c1ccccc1)c2COc1ccc2c(c1)OCO2 [Compound 93, 6-((1S)-2-Imidazolyl-1-phenylethoxy)-5-(2H-benzo[d]1,3-dioxolan-5-yloxymethyl)-2,3,4-trihydronaphthalen-1-one] |
| 3 | O=C1CCCc2c1ccc(O[C@H](Cn1ccnc1)c1ccccc1)c2COc1cccc2cccnc12 [Compound 94] |
| 5 | O=C1CCCc2c1ccc(O[C@H](Cn1ccnc1)c1ccccc1)c2COc1ccc(OC(F)(F)F)cc1 [Compound 96, 6-((1S)-2-Imidazolyl-1-phenylethoxy)-5-{[4-(trifluoromethoxy)phenoxy]methyl}-2,3,4-trihydronaphthalen-1-one] |
| 5 | Cc1cccc(OCc2c(O[C@H](Cn3ccnc3)c3ccccc3)ccc3c2CCCC3=O)c1 [Compound 99] |
| 4 | Cc1ccc(OCc2c(O[C@H](Cn3ccnc3)c3ccccc3)ccc3c2CCCC3=O)cc1 [Compound 100] |
| 3 | O=C1CCCc2c1ccc(O[C@H](Cn1ccnc1)c1ccccc1)c2COc1ccccc1F [Compound 101] |
| 5 | O=C1CCCc2c1ccc(O[C@H](Cn1ccnc1)c1ccccc1)c2COc1cccc(F)c1 [Compound 102] |
| 5 | O=C1CCCc2c1ccc(O[C@H](Cn1ccnc1)c1ccccc1)c2COc1ccc(F)cc1 [Compound 103, 6-((1S)-2-Imidazolyl-1-phenylethoxy)-5-[(4-fluorophenoxy)methyl]-2,3,4-trihydronaphthalen-1-one] |
| 5 | COc1cccc(OCc2c(O[C@H](Cn3ccnc3)c3ccccc3)ccc3c2CCCC3=O)c1 [Compound 105, 6-((1S)-2-Imidazolyl-1-phenylethoxy)-5-[(3-methoxyphenoxy)methyl]-2,3,4-trihydronaphthalen-1-one] |
| 3 | O=C1CCCc2c1ccc(O[C@H](Cn1ccnc1)c1ccccc1)c2COc1ccc2ncccc2c1 [Compound 108, 6-((1S)-2-Imidazolyl-1-phenylethoxy)-5-(6-quinolyloxymethyl)-2,3,4-trihydronaphthalen-1-one] |
| 1 | O=C1CCCc2c1ccc(O[C@H](Cn1ccnc1)c1ccccc1)c2CSC1CCCCC1 [Compound 117] |
| 0.35 | COc1ccc([S+]([O-])Cc2c(O[C@H](Cn3ccnc3)c3ccccc3)ccc3c2CCCC3=O)cc1 (stereo partly drawn) [Compound 141, 6-((S)-2-Imidazol-1-yl-1-phenyl-ethoxy)-5-(4-methoxy-benzenesulfinylmethyl)-3,4-dihydro-2H-napthalen-1-one] |
| 3 | N#Cc1ccccc1NCc1c(O[C@H](Cn2ccnc2)c2ccccc2)ccc2c1CCCC2=O [Compound 149, 2-{[2-((S)-2-Imidazol-1-yl-1-phenyl-ethoxy)-5-oxo-5,6,7,8-tetrahydro-napthalen-1-ylmethyl]-amino}-benzonitrile] |
